Measurements published in patent US10273267B2, “Beta-hairpin peptidomimetics as selective elastase inhibitors” (POLYPHOR AG, priority 2013, dated 2019).
Where a SMILES comes first, the peptide text is derived from it. [ ]: non-standard residue; d: D form. The star is where a group is joined. Oic = O=C(O)[C@@H]1C[C@@H]2CCCC[C@@H]2N1; Gly(octyl) = CCCCCCCC[C@H](N)C(=O)O; N(CH2CH2COOH)Gly = O=C(O)CCNCC(=O)O; β3hK = NCCCC[C@H](N)CC(=O)O; Octanoyl = CCCCCCCC(=O)*; Dab = NCC[C@H](N)C(=O)O; Dap = NC[C@H](N)C(=O)O; Nlys = NCCCCNCC(=O)O

Tests used:
Format in all cases: biochemical
[1] = biological target: T1, human neutrophil elastase (Homo sapiens, UniProt P08246); experiment: Inhibition of human neutrophil elastase (hydrolysis of MeOSuc-AAPV-pNA); conditions: substrate MeOSuc-AAPV-pNA 0.3 mM, enzyme 10 nM, 37° C., pH 8; read-out: Human neutrophil elastase (hNE) IC50
T1 construct: purchased Serva Electrophoresis, Germany
T1 sequence (P08246 30-267): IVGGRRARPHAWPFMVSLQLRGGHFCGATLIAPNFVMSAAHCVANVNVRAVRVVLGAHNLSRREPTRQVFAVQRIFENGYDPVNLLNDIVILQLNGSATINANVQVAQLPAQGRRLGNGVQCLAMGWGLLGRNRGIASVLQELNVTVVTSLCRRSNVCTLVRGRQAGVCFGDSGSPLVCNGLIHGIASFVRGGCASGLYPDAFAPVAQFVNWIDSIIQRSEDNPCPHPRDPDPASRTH
Description: 2.2 Inhibition of Human Neutrophil Elastase
The ability of the peptides of the invention to inhibit the hydrolysis activity of human neutrophil elastase (Serva Electrophoresis, Germany) using the synthetic tetrapeptidic substrate MeOSuc-AAPV-pNA (Bachem, Switzerland) was determined as follows:
(§1) The above substrate (0.3 mM) and human neutrophil elastase (10 nM) were incubated at 37° C. with serial dilutions of the peptides (1% DMSO final) in assay buffer (50 mM Tris, pH 8, 300 mM NaCl, 0.01% Tween20). The release of pNA was followed by monitoring the change in absorbance at 405 nm for 30 minutes. Control assays with the same assay set-up as above, but without peptide, ran linearly. The dose-response data were fitted to the 4-parameter Hill equation providing the IC50 value using Graphpad (Prism 5).

[2] = biological target: T2, porcine pancreatic elastase (Sus scrofa, UniProt P00772); experiment: Inhibition of porcine pancreatic elastase (hydrolysis of MeOSuc-AAA-pNA); conditions: for hNE/PPE selectivity: ratio of PPE IC50 to hNE IC50; for IC50: substrate MeOSuc-AAA-pNA 1 mM, enzyme 15 nM, 37° C., pH8, read-out: Porcine pancreatic elastase (PPE) IC50
T2 construct: purchased Sigma, USA
T2 sequence (P00772 27-266): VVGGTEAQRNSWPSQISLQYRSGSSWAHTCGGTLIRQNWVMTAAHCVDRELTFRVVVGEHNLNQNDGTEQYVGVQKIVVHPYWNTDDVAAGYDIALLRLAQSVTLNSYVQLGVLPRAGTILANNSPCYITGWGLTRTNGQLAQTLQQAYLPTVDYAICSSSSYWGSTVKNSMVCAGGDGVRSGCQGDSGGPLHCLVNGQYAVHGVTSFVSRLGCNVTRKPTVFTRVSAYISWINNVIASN
Description: 2.3 Inhibition of Porcine Pancreatic Elastase
The ability of the peptides of the invention to inhibit the hydrolysis activity of porcine pancreatic elastase (Sigma, USA) using the synthetic tripeptidic substrate MeOSuc-AAA-pNA (Bachem, Switzerland) was determined as follows:
as §1, with “(1” for “(0.3”, “porcine pancreatic” for “neutrophil”, “(15” for “(10”, “(0.5%” for “(1%”, “pH8, 100” for “pH 8, 300”

human proteinase 3 = biological target: T3, human proteinase 3 (Homo sapiens, UniProt P24158); experiment: Inhibition of human proteinase 3 (substrate Boc-Ala-Ala-Nva-SBzl); conditions: for hNE/hPr3 selectivity: ratio of hPr3 IC50 to hNE IC50; for IC50: substrate Boc-Ala-Ala-Nva-SBzl 1 mM, enzyme 10 nM, 37° C., pH7.4, read-out: Human proteinase 3 (hPr3) IC50
T3 construct: purchased Elastin Products Company, USA
T3 sequence (P24158 28-248): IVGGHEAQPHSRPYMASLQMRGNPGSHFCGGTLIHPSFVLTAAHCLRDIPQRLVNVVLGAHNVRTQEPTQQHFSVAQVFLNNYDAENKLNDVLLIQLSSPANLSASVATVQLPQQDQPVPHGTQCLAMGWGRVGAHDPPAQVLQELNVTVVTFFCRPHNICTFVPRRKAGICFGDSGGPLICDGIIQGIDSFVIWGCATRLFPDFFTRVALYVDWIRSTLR
Description: 2.4 Inhibition of Human Proteinase 3
The inactivation of human proteinase 3 (Elastin Products Company, USA) by the peptides of the invention using synthetic tripeptidic substrate Boc-Ala-Ala-Nva-SBzl (Elastin Products Company, USA) was determined as follows:
as §1, with “(1 mM), 4,4′-dithiodipyridine (250 μM)” for “(0.3 mM)”, “proteinase 3” for “neutrophil elastase”, “(0.5%” for “(1%”, “pH7.4, 150” for “pH 8, 300”, “reaction process” for “release of pNA”, “340” for “405”

| IC50 [1] [µM] | hNE/PPE selectivity [2] | IC50 [2] [µM] | hNE/hPr3 selectivity (human proteinase 3) | IC50 (human proteinase 3) [µM] | SMILES |
| --- | --- | --- | --- | --- | --- |
| 0.0415 | 212 | 8.8 | 371 | 15.4 | CCCCCCCC[C@@H]1NC(=O)[C@@H]2CCCN2C(=O)[C@H]2CCCN2C(=O)[C@H]([C@@H](C)O)NC(=O)C[C@H](CCCCN)NC(=O)[C@H](CCC(N)=O)NC(=O)[C@@H]2CCCN2C(=O)[C@@H]2CCCN2C(=O)[C@H]([C@@H](C)CC)NC(=O)[C@H](CO)NC(=O)[C@H](C)NC(=O)[C@H]([C@@H](C)O)NC(=O)[C@H](CCC(=O)O)NC1=O [Example 37, Cyclo(-OctGly-Glu-Thr-Ala-Ser-Ile-Pro-Pro-Gln-[H-β^3-H Lys-OH]-Thr-^DPro-Pro-)] (cyclo([Gly(octyl)]ETASIPPQ[β3hK]T[dP]P)) |
| 0.0303 | 512 | 15.5 | 172 | 5.2 | CCCCCCCC[C@@H]1NC(=O)[C@@H]2CCCN2C(=O)[C@H]2CCCN2C(=O)[C@H]([C@@H](C)O)NC(=O)[C@H](CCCCN)NC(=O)[C@H](CCC(N)=O)NC(=O)CN(CCC(=O)O)C(=O)[C@@H]2CCCN2C(=O)[C@H]([C@@H](C)CC)NC(=O)[C@H](CO)NC(=O)[C@H](C)NC(=O)[C@H]([C@@H](C)O)NC(=O)[C@H](CCC(=O)O)NC1=O [Example 34, Cyclo(-OctGly-Glu-Thr-Ala-Ser-Ile-Pro-Nglu-Gln-Lys-Thr-^DPro-Pro-)] (cyclo([Gly(octyl)]ETASIP[N(CH2CH2COOH)Gly]QKT[dP]P)) |
| 0.0055 | 218 | 1.2 | 644 | 3.54 | CCCCCCCC[C@@H]1NC(=O)[C@@H]2CCCN2C(=O)[C@H]2CCCN2C(=O)[C@H](CN)NC(=O)[C@H](CCCCN)NC(=O)[C@H](CCC(N)=O)NC(=O)[C@@H]2CCCN2C(=O)[C@@H]2CCCN2C(=O)[C@H]([C@@H](C)CC)NC(=O)[C@H](CO)NC(=O)[C@H](C)NC(=O)[C@H]([C@@H](C)O)NC(=O)[C@H](CCC(=O)O)NC1=O [Example 2, Cyclo(-OctGly-Glu-Thr-Ala-Ser-Ile-Pro-Pro-Gln-Lys-Dap-^DPro-Pro-)] (cyclo([Gly(octyl)]ETASIPPQK[Dap][dP]P)) |
| 0.0101 | 4366 | 44.1 | 3921 | 39.6 | CCCCCCCC[C@@H]1NC(=O)[C@H](Cc2ccc(O)cc2)NC(=O)[C@@H](CCCCN)NC(=O)[C@H]([C@@H](C)O)NC(=O)[C@H](CCCCN)NC(=O)[C@H](CCC(N)=O)NC(=O)[C@@H]2CCCN2C(=O)[C@@H]2CCCN2C(=O)[C@H]([C@@H](C)CC)NC(=O)[C@H](CO)NC(=O)[C@H](C)NC(=O)[C@H]([C@@H](C)O)NC(=O)[C@H](CCC(=O)O)NC1=O [Example 27, Cyclo(-OctGly-Glu-Thr-Ala-Ser-Ile-Pro-Pro-GI n-Lys-Thr-^DLys-Tyr-)] (cyclo([Gly(octyl)]ETASIPPQKT[dK]Y)) |
| 0.0064 | 7031 | 45 | 6531 | 41.8 | CCCCCCCC[C@@H]1NC(=O)[C@H](CCCCN)NC(=O)[C@@H](Cc2ccc(O)cc2)NC(=O)[C@H]([C@@H](C)O)NC(=O)[C@H](CCCCN)NC(=O)[C@H](CCC(N)=O)NC(=O)[C@@H]2CCCN2C(=O)[C@@H]2CCCN2C(=O)[C@H]([C@@H](C)CC)NC(=O)[C@H](CO)NC(=O)[C@H](C)NC(=O)[C@H]([C@@H](C)O)NC(=O)[C@H](CCC(=O)O)NC1=O [Example 25, Cyclo(-OctGly-Glu-Thr-Ala-Ser-Ile-Pro-Pro-GI n-Lys-Thr-^DTyr-Lys-)] (cyclo([Gly(octyl)]ETASIPPQKT[dY]K)) |
| 0.0096 | >10417 | > 100 | >10417 | > 100 | CC[C@H](C)[C@@H]1NC(=O)[C@H](CO)NC(=O)[C@H](C)NC(=O)[C@H]([C@@H](C)O)NC(=O)[C@H](C(C)C)NC(=O)[C@H](CCCNC(=N)N)NC(=O)[C@H](CCC(=O)O)NC(=O)[C@H]2CCCN2C(=O)[C@H]([C@@H](C)O)NC(=O)[C@H](CCCCN)NC(=O)[C@H](CCC(N)=O)NC(=O)[C@@H]2C[C@@H]3CCCC[C@@H]3N2C(=O)[C@@H]2CCCN2C1=O [Example 44, Cyclo(-Arg-Val-Thr-Ala-Ser-Ile-Pro-Oic-Gln-Lys-Thr-^DPro-Glu-)] (cyclo(RVTASIP[Oic]QKT[dP]E)) |
| 0.0013 | >76923 | > 100 | >76923 | > 100 | CCCCCCCC[C@@H]1NC(=O)[C@@H](CCC(=O)O)NC(=O)[C@H]2CCCN2C(=O)[C@H]([C@@H](C)O)NC(=O)[C@H](CCCCN)NC(=O)[C@H](CCC(N)=O)NC(=O)[C@@H]2CCCN2C(=O)[C@@H]2CCCN2C(=O)[C@H]([C@@H](C)CC)NC(=O)[C@H](CO)NC(=O)[C@H](C)NC(=O)[C@H]([C@@H](C)O)NC(=O)[C@H](CCC(=O)O)NC1=O [Example 40, Cyclo(-OctGly-Glu-Thr-Ala-Ser-Ile-Pro-Pro-Gln-Lys-Thr-^DPro-^DGlu-)] (cyclo([Gly(octyl)]ETASIPPQKT[dP][dE])) |
| 0.007 | 1186 | 8.3 | 871 | 6.1 | CCCCCCCC[C@@H]1NC(=O)[C@@H]2CCCN2C(=O)[C@H]2CCCN2C(=O)[C@H]([C@@H](C)O)NC(=O)[C@H](CCCCN)NC(=O)[C@H](CCC(N)=O)NC(=O)[C@@H]2CCCN2C(=O)CN(CCCCN)C(=O)[C@H]([C@@H](C)CC)NC(=O)[C@H](CO)NC(=O)[C@H](C)NC(=O)[C@H]([C@@H](C)O)NC(=O)[C@H](CCC(=O)O)NC1=O [Example 33, Cyclo(-OctGly-Glu-Thr-Ala-Ser-Ile-Nlys-Pro-Gln-Lys-Thr-^DPro-Pro-)] (cyclo([Gly(octyl)]ETASI[Nlys]PQKT[dP]P)) |
| 0.0191 | 4859 | 92.8 | 2366 | 45.2 | CCCCCCCC(=O)NCC[C@@H]1NC(=O)[C@@H]2CCCN2C(=O)[C@H]2CCCN2C(=O)[C@H]([C@@H](C)O)NC(=O)[C@H](CCCCN)NC(=O)[C@H](CCC(N)=O)NC(=O)[C@@H]2CCCN2C(=O)[C@@H]2CCCN2C(=O)[C@H]([C@@H](C)CC)NC(=O)[C@H](CO)NC(=O)[C@H](C)NC(=O)[C@H]([C@@H](C)O)NC(=O)[C@H](CCC(=O)O)NC1=O [Example 15, Cyclo(-Dab(Octanoyl)-Glu-Thr-Ala-Ser-Ile-Pro-Pro-Gln-Lys-Thr-^DPro-Pro-)] (cyclo([Dab](Octanoyl)ETASIPPQKT[dP]P)) |
| 0.012 | 321 | 3.85 | 372 | 4.46 | CCCCCCCC[C@@H]1NC(=O)[C@@H]2C[C@@H]3CCCC[C@@H]3N2C(=O)[C@H]2CCCN2C(=O)[C@H]([C@@H](C)O)NC(=O)[C@H](CCCCN)NC(=O)[C@H](CCC(N)=O)NC(=O)[C@@H]2CCCN2C(=O)[C@@H]2CCCN2C(=O)[C@H]([C@@H](C)CC)NC(=O)[C@H](CO)NC(=O)[C@H](C)NC(=O)[C@H]([C@@H](C)O)NC(=O)[C@H](CCC(=O)O)NC1=O [Example 6, Cyclo(-OctGly-Glu-Thr-Ala-Ser-Ile-Pro-Pro-Gln-Lys-Thr-^DPro-Oic-)] (cyclo([Gly(octyl)]ETASIPPQKT[dP][Oic])) |
